The values that follow come from PMC8901119 (Chemical Science, 2021).

For data set [1], the target named is Cts L (Homo sapiens, UniProt P07711). In words: Cathepsin L inhibition assay with Z-FR-AMC.
Procedure: The peptide inhibitors were pre-incubated with the appropriate proteases in the assay buffer for 10 min to ensure full interactions prior being added to the fluorogenic substrates. The fluorescence of the reaction was monitored as a function of time at 460 nm with an excitation wavelength of 380 nm by a Tecan M1000 plate reader. Each assay was done in triplicates to ensure reproducibility.
Cathepsin L Inhibition Assay. For cathepsin L (Cts L, ≥ 0.5 units/mg protein, solution; from human liver), various concentrations of the substrate Z-FR-AMC (1 μM, 2 μM, 3 μM, 5 μM, 7
μM, 10 μM, 15 μM, and 20 μM) were reacted with 37.9 nM Cts L in a 96-well plate at 27 °C.
Assay buffer consisted of100 mM sodium acetate, 100 mM NaCl, 1 mM EDTA, and 5 mM DTT
with this KSP1 peptide were conducted in 12.3 mM Na2HPO4, 87.7 mM NaH2PO4, 100 mM NaCl,
5 mM DTT, 1 mM EDTA, pH 6.0 at 27 °C – the buffer condition used for this peptide construct
3 A stock solution of 220 μg/mL enzyme in 20 mM malonate, 1 mM EDTA, 400
mM NaCl, pH 5.5 was diluted with the assay buffer. Peptide (inhibitor) stock solutions were
prepared in a minimal amount of Milli-Q water then diluted to the desired concentrations with the
assay buffer. A 5 mM stock solution of the fluorogenic substrate Z-FR-AMC (Bachem; Torrance, CA, USA) was initially prepared in DMSO and diluted with assay buffer. The diluted solution of
Cts L was incubated in the assay buffer with or without the peptide inhibitor at room temperature
for 10 min. For each 50 μL reaction, 25 μL of this Cts L solution (either with or without the peptide inhibitor) was added to 25 μL diluted Z-FR-AMC substrate to initiate the reaction. The fluorescence of the reaction was monitored as a function of time at 460 nm with an excitation wavelength of 380 nm on the Tecan M1000 plate reader. Three independent trials were performed
for each assay to ensure reproducibility. For analysis, the fluorescence data was converted to rates
of proteolysis in terms of concentration (μM/min) by a conversion factor calculated from a linear
fit of the endpoint fluorescence at complete hydrolysis versus substrate concentration. The initial reaction rate was then calculated by extracting the slope of a linear fit of the first 2 min of the
progress curve (Figures S13-S19). These curves were fit to a Michaelis-Menten enzyme kinetic
Kinetics Analysis of the Peptide Inhibitors of Cathepsin L, V, K, B, and S
For Cts L, from initial evaluation of the kinetic parameters obtained from fitting to Michaelis-
data from Z-FR-AMC inhibition assays with Cts L was thus further fitted to a general Mixed
Inhibition Model in GraphPad Prism version 8.4.3 (GraphPad Software; La Jolla, CA), using
A mixed Inhibition Mechanism for Reversible Inhibitors. Abbreviations: E: enzymes;
S: substrate; I: inhibitor; P: product; EI: enzyme-inhibitor complex; ESI: enzyme-substrate-
inhibitor complex; KI: dissociation constant for the EI complex; αK I (also known as KI'):
dissociation constant for the ESI complex.
This general mixed-inhibition model uses a global fitting in which Vmax, KM, KI, constant α and are
shared. The constant α here determines the degree to which inhibitor binding changes the affinity
of the enzyme for substrate; the value of α is always greater than zero.5, 6 An α = 1 (K I = αKI)
complex (ES); the model then becomes identical to a noncompetitive inhibition model.5, 6 When α
> 1, the inhibitor binds preferentially to the free enzyme (E); if α = ∞, the inhibitor binds almost
exclusively the free enzyme and this model becomes identical to competitive inhibition.5, 6 If 0 <α
Data set [2] can be described thus: Stability of peptides in HepG2 whole cell lysate. The data set is classed as in vitro ADME. To be noted: human. On the procedure:
Stability of Peptides in HepG2 Whole Cell Lysate
Using the same conditions as the previous Cts L Activity Assay in HepG2 Whole Cell Lysate, 50 μL peptide (either R1A or RS1A; final concentration 20 μM) was incubated in 50 μL HepG2 whole cell lysate (to a final concentration of 0.05 mg/mL) in the assay buffer for different time points.
The all-amide peptide, R 1A, was incubated for t = 0, 5, 10, 15, 20, and 30 minutes. The thioamide peptide, RS1A, was incubated for t = 0, 2, 6, 8, 10, and 24 hours. After incubation for the desired amount of time, 100 μL methanol was added to the mixture and incubated at -20 °C for 10 minutes before spinning down at 13,000 rpm for 10 minutes. Then, 180 μL of each mixture was further diluted with 220 μL Milli-Q water to a total volume of 400 μL before adding 1 μL 0.42 mM coumarin internal standard for HPLC analysis. The coumarin internal standard was used to normalize the amount of intact peptide in each sample. A Phenomenex Luna® Omega 5 µm PS C18 100 Å analytical column was used to analyze all samples using the same gradient of 20-40 % B over 20 minutes (Solvent A: 0.1% TFA in Milli-Q water; Solvent B: 0.1% TFA in acetonitrile).
Representative HPLC spectra (325 nm) at different time points were also shown to confirm the stability of the peptides in HepG2 whole cell lysate (Figure S26 A & B). MALDI MS was used to confirm the mass from each fraction from the HPLC from experiment with the all-amide peptide (R 1A – expected [M+H]+ = 1133.51 m/z) and the thioamide peptide ( RS1A – expected [M+H]+ = 1149.48 m/z). To calculate the percent intact peptide for each sample, the average ratio of intact peptide to internal standard was compared to that ratio at t = 0. For each time point, the experiment

Data set [3] relates to cathepsin L (Cts L). To be noted: human, 27 °C, up to 2-hour.
Data set [4] concerns cathepsin S (Cts S). To be noted: 27 °C, up to 100 min.
Data set [5] deals with cathepsin B (Cts B). To be noted: human, 27 °C, up to 100 min.
Data set [6] deals with cathepsin L (Cts L). Conditions: human, 27 °C, up to 100 min.
Data set [7] concerns cathepsin V (Cts V). Conditions: 27 °C, up to 100 min.
Data set [8] concerns cathepsin K (Cts K). Conditions: 27 °C, up to 100 min.
Where [9] appears, read: Cts L, mixed inhibition model fit, Z-FR-AMC, pH 5.5, 27 °C.

Like-named read-outs stand apart in the source and are kept apart here. Starred links: 1 amine or outer side, 2 acyl side, 3 side chain; linkers in the order of their positions; H or OH if unused. Non-standard residues stand in square brackets, D forms with d. Residues, ends and D or L forms follow the SMILES beside them. Ala(7-MeO-coumarin-4-yl) = COc1ccc2c(C[C@H](N)C(=O)O)cc(=O)oc2c1; X1 = C[C@H](NC(=S)[C@H](CCCNC(=N)N)N[*:1])C(=O)[*:2]; X2 = C[C@H](NC(=S)[C@H](CCCCN)N[*:1])C(=O)[*:2]

Sequence of Cts L (P07711 114-333): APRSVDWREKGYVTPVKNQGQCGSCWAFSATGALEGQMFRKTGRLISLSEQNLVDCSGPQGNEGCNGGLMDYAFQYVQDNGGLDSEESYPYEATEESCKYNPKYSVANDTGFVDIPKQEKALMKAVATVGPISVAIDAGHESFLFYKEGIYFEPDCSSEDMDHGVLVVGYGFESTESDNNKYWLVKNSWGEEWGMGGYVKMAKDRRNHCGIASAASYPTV

Regarding `COc1ccc2c(C[C@H](NC(=O)[C@H](C)NC(=O)[C@H](C)NC(=O)[C@H](C)NC(=O)[C@H](CCCCN)NC(=O)[C@H](Cc3ccccc3)NC(=O)[C@H](CC(C)C)NC(=O)[C@H](Cc3c[nH]cn3)NC(=O)[C@@H](N)Cc3cc(=O)oc4cc(OC)ccc34)C(=O)O)cc(=O)oc2c1` [K3A, μHLFKAAAμ] (H-[Ala(7-MeO-coumarin-4-yl)]HLFKAAA[Ala(7-MeO-coumarin-4-yl)]-OH), in data set [1] (setting [9]), the Ki (as a rule, a measure of affinity in units of concentration, obtained from inhibition or displacement) was 3050 ± 640 nM.
In data set [1] (setting [9]), `COc1ccc2c(C[C@H](NC(=O)[C@H](C)NC(=O)[C@H](C)NC(=O)[C@H](C)NC(=S)[C@H](CCCCN)NC(=O)[C@H](Cc3ccccc3)NC(=O)[C@H](CC(C)C)NC(=O)[C@H](Cc3c[nH]cn3)NC(=O)[C@@H](N)Cc3cc(=O)oc4cc(OC)ccc34)C(=O)O)cc(=O)oc2c1` [K^S3A, μHLFK^SAAAμ] (H-[Ala(7-MeO-coumarin-4-yl)]HLF[X2]AA[Ala(7-MeO-coumarin-4-yl)]-OH) gave a Ki of 600 ± 150 nM.
`COc1ccc2c(C[C@H](NC(=O)[C@H](C)NC(=O)[C@H](C)NC(=O)[C@H](C)NC(=S)[C@H](CCCCN)NC(=O)[C@H](CC(C)C)NC(=O)[C@H](CC(C)C)NC(=O)[C@@H](N)Cc3cc(=O)oc4cc(OC)ccc34)C(=O)O)cc(=O)oc2c1` [K^SP1, μLLK^SAAAμ] (H-[Ala(7-MeO-coumarin-4-yl)]LL[X2]AA[Ala(7-MeO-coumarin-4-yl)]-OH; N-terminus and C-terminus assumed): in data set [1] (Cts L (preliminary data), phosphate buffer pH 6.0, 27 °C, preliminary), the inhibition constant Ki was found to be 870 nM.
As to `COc1ccc2c(C[C@H](NC(=O)[C@H](C)NC(=O)[C@H](CCCNC(=N)N)NC(=O)[C@H](Cc3ccccc3)NC(=O)[C@H](CC(C)C)NC(=O)[C@H](Cc3c[nH]cn3)NC(=O)[C@@H](N)Cc3cc(=O)oc4cc(OC)ccc34)C(=O)O)cc(=O)oc2c1` [R1A, μHLFRAμ] (H-[Ala(7-MeO-coumarin-4-yl)]HLFRA[Ala(7-MeO-coumarin-4-yl)]-OH), the half-life (as a rule, how long it takes for the measured level to halve) at 20 μM in data set [2] (20 μM peptide, 0.05 mg/mL lysate, HPLC) worked out at 7.2 min. In addition, the remaining at 5 min, 20 μM in data set [2] (HepG2 lysate, 5 mins, read-out: % intact peptide) turned out to be 46%. Besides, in data set [2] (HepG2 lysate, 10 mins, read-out: % intact peptide), the remaining at 10 min, 20 μM came to 36%. Moreover, the remaining at 0.25 h, 20 μM in data set [2] (HepG2 lysate, 15 mins, read-out: % intact peptide) came out at 32.8%. The remaining at 20 min, 20 μM in data set [2] (HepG2 lysate, 20 mins, read-out: % intact peptide) stood at 21.7%. Further, the remaining at 0.5 h, 20 μM in data set [2] (HepG2 lysate, 30 mins, read-out: % intact peptide) was 6.92%.
The compound `COc1ccc2c(C[C@H](NC(=O)[C@H](C)NC(=O)[C@H](C)NC(=O)[C@H](C)NC(=O)[C@H](CCCNC(=N)N)NC(=O)[C@H](Cc3ccccc3)NC(=O)[C@H](CC(C)C)NC(=O)[C@H](Cc3c[nH]cn3)NC(=O)[C@@H](N)Cc3cc(=O)oc4cc(OC)ccc34)C(=O)O)cc(=O)oc2c1` [R3A, μHLFRAAAμ] (H-[Ala(7-MeO-coumarin-4-yl)]HLFRAAA[Ala(7-MeO-coumarin-4-yl)]-OH) registered a Ki in data set [1] (setting [9]) of 1680 ± 490 nM.
Regarding `COc1ccc2c(C[C@H](NC(=O)[C@H](C)NC(=S)[C@H](CCCNC(=N)N)NC(=O)[C@H](Cc3ccccc3)NC(=O)[C@H](CC(C)C)NC(=O)[C@H](Cc3c[nH]cn3)NC(=O)[C@@H](N)Cc3cc(=O)oc4cc(OC)ccc34)C(=O)O)cc(=O)oc2c1` [R^S1A, μHLFR^SAμ] (H-[Ala(7-MeO-coumarin-4-yl)]HLF[X1][Ala(7-MeO-coumarin-4-yl)]-OH), in data set [2] (HepG2 lysate, 2 hours, read-out: % intact peptide), the remaining at 2 h, 20 μM came to 86.3%. In data set [2] (HepG2 lysate, 6 hours, read-out: % intact peptide), the remaining at 6 h, 20 μM is 75.7%. The remaining at 8 h, 20 μM in data set [2] (HepG2 lysate, 8 hours, read-out: % intact peptide) came out at 80.7%. Besides, in data set [2] (HepG2 lysate, 10 hours, read-out: % intact peptide), the remaining at 10 h, 20 μM turned out to be 79.9%. Moreover, in data set [2] (HepG2 lysate, 24 hours, read-out: % intact peptide), the remaining at 24 h, 20 μM was determined as 61.3%.
Take `COc1ccc2c(C[C@H](NC(=O)[C@H](C)NC(=O)[C@H](C)NC(=O)[C@H](C)NC(=S)[C@H](CCCNC(=N)N)NC(=O)[C@H](Cc3ccccc3)NC(=O)[C@H](CC(C)C)NC(=O)[C@H](Cc3c[nH]cn3)NC(=O)[C@@H](N)Cc3cc(=O)oc4cc(OC)ccc34)C(=O)O)cc(=O)oc2c1` [R^S3A, μHLFR^SAAAμ] (H-[Ala(7-MeO-coumarin-4-yl)]HLF[X1]AA[Ala(7-MeO-coumarin-4-yl)]-OH): the affinity in data set [1] (setting [9]) corresponds to a Ki of 520 ± 120 nM.
For the compound HLFR^SA, the not cleaved entry in data set [3] was “remained intact after the 2-hour assay”.
“μHLFKAAAμ (H-[Ala(7-MeO-coumarin-4-yl)]HLFKAAA[Ala(7-MeO-coumarin-4-yl)]-OH; SMILES COc1ccc2c(C[C@H](NC(=O)[C@H](C)NC(=O)[C@H](C)NC(=O)[C@H](C)NC(=O)[C@H](CCCCN)NC(=O)[C@H](Cc3ccccc3)NC(=O)[C@H](CC(C)C)NC(=O)[C@H](Cc3c[nH]cn3)NC(=O)[C@@H](N)Cc3cc(=O)oc4cc(OC)ccc34)C(=O)O)cc(=O)oc2c1)”: the cleaved bond result in data set [4] and in data set [5] was “K-A” in each case.
For the compound “μHLFK^SAAAμ (H-[Ala(7-MeO-coumarin-4-yl)]HLF[X2]AA[Ala(7-MeO-coumarin-4-yl)]-OH; SMILES COc1ccc2c(C[C@H](NC(=O)[C@H](C)NC(=O)[C@H](C)NC(=O)[C@H](C)NC(=S)[C@H](CCCCN)NC(=O)[C@H](Cc3ccccc3)NC(=O)[C@H](CC(C)C)NC(=O)[C@H](Cc3c[nH]cn3)NC(=O)[C@@H](N)Cc3cc(=O)oc4cc(OC)ccc34)C(=O)O)cc(=O)oc2c1)”, the cleaved bond result in data set [6] and in data set [5] was “A-A” in each case. Besides, the not cleaved entry in data set [4], in data set [7] and in data set [8] was “No cleavage” throughout.
On to “μHLFRAAAμ (H-[Ala(7-MeO-coumarin-4-yl)]HLFRAAA[Ala(7-MeO-coumarin-4-yl)]-OH; SMILES COc1ccc2c(C[C@H](NC(=O)[C@H](C)NC(=O)[C@H](C)NC(=O)[C@H](C)NC(=O)[C@H](CCCNC(=N)N)NC(=O)[C@H](Cc3ccccc3)NC(=O)[C@H](CC(C)C)NC(=O)[C@H](Cc3c[nH]cn3)NC(=O)[C@@H](N)Cc3cc(=O)oc4cc(OC)ccc34)C(=O)O)cc(=O)oc2c1)”, for which the cleaved bond entry in data set [4] and in data set [5] was “R-A” in each case.
On to “μHLFR^SAAAμ (H-[Ala(7-MeO-coumarin-4-yl)]HLF[X1]AA[Ala(7-MeO-coumarin-4-yl)]-OH; SMILES COc1ccc2c(C[C@H](NC(=O)[C@H](C)NC(=O)[C@H](C)NC(=O)[C@H](C)NC(=S)[C@H](CCCNC(=N)N)NC(=O)[C@H](Cc3ccccc3)NC(=O)[C@H](CC(C)C)NC(=O)[C@H](Cc3c[nH]cn3)NC(=O)[C@@H](N)Cc3cc(=O)oc4cc(OC)ccc34)C(=O)O)cc(=O)oc2c1)”, for which the cleaved bond result in data set [6] and in data set [5] was “A-A” each time. For the same compound, the not cleaved entry in data set [4], in data set [7] and in data set [8] was “No cleavage” throughout.
On to μHLFR^SAμ, for which the not cleaved entry in data set [6], in data set [4], in data set [5], in data set [7] and in data set [8] was “No cleavage” each time.
